Values of other authors, collected in US20020015956A1, “Compositions and methods for the identification, assessment, prevention, and therapy of human cancers” (priority 2000, published 2002).

System: tumor
Conditions: animal models

For `CC(=O)O[C@@]12CO[C@@H]1C[C@H](O)[C@@]1(C)C(=O)[C@H](O)C3=C(C)[C@@H](OC(=O)[C@H](O)[C@@H](NC(=O)OC(C)(C)C)c4ccccc4)C[C@@](O)([C@@H](OC(=O)c4ccccc4)[C@H]21)C3(C)C` [Taxotere, docetaxel], the anti-tumor activity is given as “good anti-tumor activity”.
